Like-named read-outs stand apart in the source and are kept apart here.
Tests used:
HO-1 = HO-1 synthesis by ELISA in adipocyte lysates; format: cell-based, Human; settings: for activation at 3 ppm / activation at 5 ppm: Homo sapiens, Adipocyte, read-out: [HO-1] % Var / control
Procedure: HO-1 enzymes catalyse the degradation of heme into biliverdin, iron, and carbon monoxide. Its overexpression is associated with a decrease in the size of adipocytes in adipose tissue, an increase of adiponectin secretion and a decrease of IL-6 and TNF secretion and is associated with weight loss.
Human preadipocytes were seeded and induced to differentiate at confluence in the presence of a cocktail of specific inducers and the products to evaluate. After 10 days, the layers were crushed and the HO-1 content was measured in these lysates by ELISA. Furthermore after 10 days of differentiation, matiure adipocytes were placed in contact with the products for 48h and the HO-1 content was also measured in the cellular lysates. In parallel, an estimation of the cell quantification is realized on these two assays (Hoechst test).

elastin = assay: Elastin fibres in skin explants under NO stress (Verhoeff stain); settings: 18 ppm
Procedure: Principle: Explants (person, abdominal skin) received a topical cream containing the product of the invention (cream according to above example 1 at 18ppm of zerumbone) or a placebo cream (same cream without zerumbone) for two days. At the same time, the culture medium received 18ppm of zerumbone in a liquid form (or its excipient) to potentiate the effects. A NO stress was later applied for 24 hours using an NO donor (NOC-5) integrated in the culture medium. Finally, the product was again applied on the explants and in the culture medium for two days.
Counting was done using photos (50 photos/case) by filtering the colours.

Cathepsin-S = Cathepsin-S in NHF under NO stress, ELISA; format: cell-based, human; settings: NO stress (NOC-5)
Procedure: Principle: NHFs were put into contact with the invention product for 24h then were subjected to NO stress. NO donor, NOC-5, was introduced in the culture medium. At the end of a second 24h contact with the zerumbone extract, a cathepsin-S assay was performed using ELISA. At the same time, the number of cells was quantified using the Hoechst method.

For `C/C1=C\CC(C)(C)/C=C/C(=O)/C(C)=C/CC1` [Zerumbone, 2E, 6E, 9E-Humulatrien-8-one], the “[HO-1]” value (HO-1; 3ppm, adipocytes in the course of differenciation (10days)) was 51658 +/- 7985 ng/ 10^6 cell, the “[HO-1]” value (HO-1; 3ppm, mature adipocytes (48h)) was 70229 +/- 10638 ng/ 10^6 cell and the “[HO-1]” value (HO-1; 5ppm, adipocytes in the course of differenciation (10days)) was 67243 +/- 11428 ng/ 10^6 cell. For the same compound, the “[HO-1]” value (HO-1; 5ppm, mature adipocytes (48h)) was 96700 +/- 4548 ng/ 10^6 cell, the activation at 3 ppm (HO-1; 240 h, 3ppm, adipocytes in the course of differenciation (10days)) was 29% and the activation at 5 ppm (HO-1; 240 h, 5ppm, adipocytes in the course of differenciation (10days)) was 68%. It also gave an activation at 3 ppm (HO-1; 3ppm, mature adipocytes (48h)) of 142%, an activation at 5 ppm (HO-1; 5ppm, mature adipocytes (48h)) of 233% and an Elastin (elastin; cream and culture medium, NO stress (NOC-5) 24 hours) of 2.41 ± 1.40 UCA. The “Elastin % Variation” value (elastin; versus Control NO (Reference 2)) was “+104%; p<0.01”, the Cathepsin-S (Cathepsin-S; 5 ppm) was 290 ± 40 pg/106cell and the inhibition at 5 ppm (Cathepsin-S; Homo sapiens, Fibroblast, read-out: Cathepsin-S % Variation) was 34%.

Source: patent publication EP2802310B1, “NEW USE OF ZERUMBONE AND COMPOSITIONS COMPRISING ZERUMBONE” (Sederma, priority 2012, dated 2013)
